Data published in patent US12558428B2, “Heterobifunctional compounds and their use in treating disease” (Halda Therapeutics OpCo, Inc., priority 2024, dated 2026).
Where two headings read alike, the source gives them in different places.

How the values were obtained:
Format in all cases: cell-based
[1] = tested on: T-Rex 293 cells having increased expression of estrogen receptor alpha protein; test: Cellular growth inhibition assay, T-Rex 293 cells, (+) doxycycline; details: T-REx-293, 72 h, T-Rex 293 cells with doxycycline (increased ERα expression), 72 hours, CellTiter-Glo, read-out: (+) Dox GI50
How it was run: (§1)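 ERα overexpression was switched on by 3 ng/mL doxycycline in a stably transfected T-Rex 293 clone, while uninduced cells served as the comparison line. Proliferation over 72 h of compound treatment was assessed by ATP luminescence, and GI50 values came from four-parameter curves.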

[2] = tested on: MCF7 cells (ECACC #86012803); test: Cellular growth inhibition assay, MCF7 cells purchased from ECACC; details: Homo sapiens, 144 h; MCF7 cells purchased from ECACC (#86012803); six days treatment; CellTiter-Glo 2.0 viability
Method: Exemplary compounds were tested for the ability to inhibit the proliferation of MCF7 cells.
MCF7 cells (ATCC #HTB-22 or ECACC #86012803) were cultured in RPMI 1640 medium supplemented with 10% heat-inactivated fetal bovine serum, 1% pen-strep, and 0.2 U/ml insulin. Cells were seeded in 25 μL of RPMI 1640 medium supplemented with 10% heat-inactivated fetal bovine serum, 1% pen-strep, 0.2 U/ml insulin in poly-D-lysine treated, black clear-bottom 384-well plates at 225 cells/well for MCF7 cells purchased from ECACC or 1,500 cells/well for MCF7 cells purchased from ATCC. Following seeding, plates were spun at 300×g for 30 seconds and cultured at 37° C. with 5% CO2 in a humidified tissue culture incubator.
At 24 hours after seeding, compounds were titrated in 100% DMSO and diluted in RPMI 1640 medium supplemented with 10% heat-inactivate fetal bovine serum, 1% pen-strep, and 0.2 U/ml insulin. A 25 μL aliquot of the compound/media mixture was added to cells, bringing the total volume in each well to 50 μL. An equal volume of DMSO without compound was used as a negative control. After treatment, plates were spun at 300×g for 30 seconds, then cultured at 37° C. with 5% CO2 for six days in a humidified tissue culture incubator.
On Day 6 of treatment, cell viability was quantified with CellTiter-Glo 2.0 reagent (Promega). Plates were equilibrated to room temperature for 30 minutes, then 25 μL of CellTiter-Glo 2.0 reagent was added to cells, bringing the total volume in each well to 75 μL. After reagent was added, plates were mixed on a shaker for two minutes at 500 rpm and then incubated at room temperature for 10 minutes. Following incubation, plates were spun at 3,000×g for 30 seconds, sealed with an optical adhesive cover, and luminescence readings were measured with an EnVision Plate Reader.
Data was normalized to 0 luminescence for baseline. A four-parameter, non-linear regression curve fit was applied to dose-response data in GraphPad Prism data analysis software to determine the half maximal growth inhibitory concentration (GI50) for each compound.

[3] = tested on: T-Rex 293 cells lacking increased expression of estrogen receptor alpha protein; test: Cellular growth inhibition assay, T-Rex 293 cells, (−) doxycycline; details: T-REx-293, 72 h, T-Rex 293 cells without doxycycline (lacking increased ERα expression), 72 hours, CellTiter-Glo, read-out: (−) Dox GI50
How it was run: as §1

[4] = tested on: MCF7 cells (ATCC #HTB-22); test: Cellular growth inhibition assay, MCF7 cells purchased from ATCC; details: Homo sapiens, MCF7, 144 h, Table 8-A; MCF7 cells purchased from ATCC; six days; CellTiter-Glo; read-out: GI50
How it was run: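 MCF7 cells in RPMI 1640 with 10% FBS and 0.2 U/ml insulin, seeded at 1,500 cells/well (ATCC) or 225 cells/well (ECACC). Compounds added 24 h later, then 6 days at 37° C. Viability by CellTiter-Glo 2.0 luminescence. GI50 from four-parameter fit.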

GI50 [2] [nM]	GI50 [4] [nM]	Compound	GI50 ([1]; Table 7-B) [nM]	GI50 ([3]; Table 7-B) [nM]	GI50 ([1]; Table 7-A) [nM]	GI50 ([3]; Table 7-A) [nM]
< 50		COc1cc(N2CCN(CC3(O)CCN(c4ccc(C5=N[C@@H](C)c6nnc(C)n6-c6sc(C)c(C)c65)cc4)CC3)CC2)ccc1C1=C(c2ccccc2)CCCc2cc(C(=O)O)ccc21 [IV-66]	< 50	500 to 2500		
< 50		Cc1sc2c(c1C)C(c1ccc(N3CC(CN4CCN(CC5CN(c6cc(F)c(C7=C(c8ccccc8)CCCc8cc(C(=O)O)ccc87)cc6F)C5)CC4)C3)cc1)=N[C@@H](C)c1nnc(C)n1-2 [IV-70]	< 50	500 to 2500		
< 50		COc1cc(N2CCN(CC3(O)CCN(c4ccc(C5=N[C@@H](C)c6nnc(C)n6-c6sc(C)c(C)c65)c(F)c4)CC3)CC2)ccc1[C@@H]1c2ccc(O)cc2CC[C@@H]1c1ccc(C(F)(F)F)cc1 [III-355]	< 50	500 to 2500		
< 50		COc1cc(N2CCN(CC3(O)CCN(c4ccc(C5=N[C@@H](C)c6nnc(C)n6-c6sc(C)c(C)c65)cc4)CC3)CC2)ccc1[C@@H]1c2ccc(O)cc2CC[C@@H]1c1ccc(C(F)(F)F)cc1 [III-349]	< 50	500 to 2500		
50 to 500		COc1cc(N2CCC(O)(CN3CCN(c4cc(F)c([C@H]5c6ccc(O)cc6CC[C@H]5c5ccccc5)cc4F)CC3)CC2)ccc1C1=N[C@@H](C)c2nnc(C)n2-c2sc(C)c(C)c21 [III-357]	50 to 500	500 to 2500		
< 50		COc1cc(N2CCN(CC3CCN(c4ccc(C5=N[C@@H](C)c6nnc(C)n6-c6sc(C)c(C)c65)c(F)c4)CC3)CC2)ccc1[C@@H]1c2ccc(O)cc2CC[C@@H]1c1ccc(C(F)(F)F)cc1 [III-351]	< 50	> 2500		
< 50		COc1cc(C2CCN(CC3CCC4(CC3)CN(c3ccc(C5=N[C@@H](C)c6nnc(C)n6-c6sc(C)c(C)c65)cc3)C4)CC2)ccc1C1=C(c2ccccc2Cl)CCCc2cc(C(=O)O)ccc21 [IV-71]	< 50	500 to 2500		
50 to 500		COc1cc(N2CCC(O)(CN3CCC(c4cc(F)c([C@H]5c6ccc(O)cc6CC[C@H]5c5ccc(F)cc5)c(F)c4)CC3)CC2)ccc1C1=N[C@@H](C)c2nnc(C)n2-c2sc(C)c(C)c21 [III-359]	50 to 500	500 to 2500		
< 50		COc1cc(N2CCC(O)(CN3CCN(c4cc(F)c([C@@H]5c6ccc(O)cc6CC[C@@H]5c5ccc(F)cc5)c(F)c4)CC3)CC2)ccc1C1=N[C@@H](C)c2nnc(C)n2-c2sc(C)c(C)c21 [III-358]	< 50	500 to 2500		
< 50		Cc1sc2c(c1C)C(c1ccc(N3CCC(O)(CN4CCN(c5cc(F)c(C6=C(c7ccccc7)CCCc7cc(C(=O)O)ccc76)cc5F)CC4)CC3)cc1)=N[C@@H](C)c1nnc(C)n1-2 [IV-67]	< 50	500 to 2500		
< 50		COc1cc(N2CCN(CC3(O)CCN(c4ccc(C5=N[C@@H](C)c6nnc(C)n6-c6sc(C)c(C)c65)cc4)CC3)CC2)c(F)cc1C1=C(c2ccccc2F)CCCc2cc(C(=O)O)ccc21 [IV-68]	< 50	500 to 2500		
< 50		COc1cc(N2CCC(O)(CN3CCN(c4ccc([C@H]5c6ccc(O)cc6CC[C@@H]5c5ccc(F)cc5)cc4F)CC3)CC2)ccc1C1=N[C@@H](C)c2nnc(C)n2-c2sc(C)c(C)c21 [III-352]	< 50	500 to 2500		
500 to 2500		COc1cc(N2CCN(CC3(O)CCN(c4ccc(C5=N[C@@H](C)c6nnc(C)n6-c6sc(C)c(C)c65)cc4)CC3)CC2)ccc1[C@H]1c2ccc(O)cc2CC[C@H]1c1ccc(C(F)(F)F)cc1 [III-348]	500 to 2500	500 to 2500		
< 50		Cc1sc2c(c1C)C(c1ccc(N3CC4(CC(CN5CCN(c6cc(F)c(C7=C(c8ccccc8F)CCCc8cc(C(=O)O)ccc87)cc6F)CC5)C4)C3)cc1)=N[C@@H](C)c1nnc(C)n1-2 [IV-72]	< 50	500 to 2500		
50 to 500		COc1cc(N2CCN(CC3(O)CCN(c4ccc(C5=N[C@@H](C)c6nnc(C)n6-c6sc(C)c(C)c65)c(F)c4)CC3)CC2)ccc1[C@H]1c2ccc(O)cc2CC[C@H]1c1ccc(C(F)(F)F)cc1 [III-354]	50 to 500	500 to 2500		
< 50		Cc1sc2c(c1C)C(c1ccc(N3CCC(O)(CN4CCN(c5cc(F)c(C6=C(c7ccccc7)CCCc7cc(C(=O)O)ccc76)c(F)c5)CC4)CC3)cc1)=N[C@@H](C)c1nnc(C)n1-2 [IV-69]	< 50	500 to 2500		
50 to 500		COc1cc(N2CCC(O)(CN3CCN(c4cc(F)c([C@@H]5c6ccc(O)cc6CC[C@@H]5c5ccccc5)cc4F)CC3)CC2)ccc1C1=N[C@@H](C)c2nnc(C)n2-c2sc(C)c(C)c21 [III-356]	< 50	500 to 2500		
50 to 500		COc1cc(N2CCC(O)(CN3CCN(c4ccc([C@H]5c6ccc(O)cc6CC[C@H]5c5ccc(F)cc5)cc4F)CC3)CC2)ccc1C1=N[C@@H](C)c2nnc(C)n2-c2sc(C)c(C)c21 [III-353]	50 to 500	500 to 2500		
	500 to 2500	Cc1sc2c(c1C)C(c1ccc(CC3CC4(CCCN(c5ccc([C@@H]6c7ccc(O)cc7CC[C@@H]6c6ccccc6)cc5)C4)C3)cc1)=N[C@@H](C)c1nnc(C)n1-2 (stereo partly drawn) [I-44]			50 to 500	500 to 2500
	50 to 500	Cc1cc(N2CCC(O)(CN3CCN(c4cc(F)c([C@H]5c6ccc(O)cc6CC[C@H]5c5ccccc5)cc4F)CC3)CC2)ccc1Oc1ccc(C(C)(C)O)cc1-c1cn(C)c(=O)c2[nH]ccc12 [V-38]	50 to 500	50 to 500		
	> 2500	Cc1sc2c(c1C)C(c1ccc(N3CCC(O)(CN4CCN(c5ccc([C@H]6c7ccc(C(=O)O)cc7CC[C@H]6c6ccccc6)cc5)CC4)CC3)cc1)=N[C@@H](Cc1ncco1)c1nnc(C)n1-2 [III-199]			> 2500	> 2500
	< 50	Cc1sc2c(c1C)C(c1ccc(N3CCC(CN4CCN(c5ccc([C@@H]6c7ccc(O)cc7CC[C@@H]6c6ccccc6)cc5)CC4)CC3)cc1)=N[C@@H](Cc1ncco1)c1nnc(C)n1-2 [III-73]			< 50	500 to 2500
50 to 500		COc1cc(N2CCN(CC3CCN(c4ccc(C5=N[C@@H](C)c6nnc(C)n6-c6sc(C)c(C)c65)c(F)c4)CC3)CC2)ccc1[C@H]1c2ccc(O)cc2CC[C@H]1c1ccc(C(F)(F)F)cc1 [III-350]	> 2500	> 2500		
	50 to 500	Cc1sc2c(c1C)C(c1ccc(N3CCC4(CC3)CCN(c3ccc([C@@H]5c6ccc(O)cc6CC[C@@H]5c5ccccc5)cc3)C4)cc1)=N[C@@H](C)c1nnc(C)n1-2 [III-117]			500 to 2500	500 to 2500
	50 to 500	Cc1sc2c(c1C)C(c1ccc(N3CCC(CN4CC(COc5ccc([C@H]6c7ccc(O)cc7CC[C@H]6c6ccccc6)cc5)C4)CC3)cc1)=N[C@@H](C)c1nnc(C)n1-2 [III-9]			< 50	50 to 500
	50 to 500	Cc1sc2c(c1C)C(c1ccc(N3CC4(CCC(O)(CN5CCC(c6cc(F)c([C@H]7c8ccc(O)cc8CC[C@H]7c7ccc(F)cc7)c(F)c6)CC5)CC4)C3)cc1)=N[C@@H](C)c1nnc(C)n1-2 [III-267]			50 to 500	> 2500
	50 to 500	Cc1cc(N2CCC(O)(CN3CCN(c4ccc([C@@H]5c6ccc(O)cc6CC[C@@H]5c5ccc(F)cc5F)cc4)CC3)CC2)ccc1Oc1ccc(C(C)(C)O)cc1-c1cn(C)c(=O)c2[nH]ccc12 [V-39]	50 to 500	50 to 500		
